In patent US20070191402A1, “Method of searching substrate having antidiabetic activity” (KYOWA HAKKO KOGYO CO., LTD., priority 2002, published 2007):

Assays:
[1] = system: pancreatic β cell (MIN6 cell); test: Inhibition of binding of [3H]-labeled Compound 16 to pancreatic β cell; parameters: species or system murine; conditions: for Binding inhibitory activity (%): test compound 1 μmol/l, 10 nmol/l [3H]-labeled Compound 16, MIN6 cell, 4° C.; for Binding inhibition (%): pancreatic β cells, [3H]-labeled Compound 16, tested substance 1 μmol/l or 10 μmol/l
Description: MIN6 cell cultured to almost confluence in a 24-well plate for cell culture (manufactured by Corning) was washed twice with KRH buffer (119 mmol/l NaCl, 4.74 mmol/KCl, 2.54 mmol/l calcium chloride (CaCl2), 1.19 mmol/l magnesium sulfate (MgSO4), 1.19 mmol/l potassium dihydrogen phosphate (KH2PO4), 10 mmol/l HEPES, 2 mmol/l glucose, 0.1 w/v % bovine serum albumin (BSA), pH 7.3). Subsequently, the KRH buffer was added at 1 ml per well, for preincubation at 37° C. for 45 minutes. After preincubation, the supernatant was discarded, and 0.15 ml of the KRH buffer, […] at 4° C. for one hour or longer until the reaction reached equilibrium. Subsequently, the cell was washed twice using the KRH buffer. The KRH buffer was added at 2 ml per well, which was then left to stand at room temperature for 20 minutes. The cell was again washed twice by using the KRH buffer. The radioactivity remaining in each well was counted with a liquid scintillation counter to determine the binding amount.
The difference between the binding amount of the [^3H]-labeled Compound 16 (total binding amount) under conditions with no addition of any test compound and the binding amount of the [^3H]-labeled Compound 16 (non-specific binding amount) under conditions in the presence of the Compound 16 at 10 μmol/l was defined as specific binding amount.
According to the method described in Example 5, a substance having anti-diabetic activity was screened for, using the inhibitory activity of the binding between pancreatic β cells and [^3H]-labeled Compound 16. A tested substance was dissolved in dimethylsulfoxide and then added to give a final concentration of 1 μmol/l. The radioactivity with addition of the unlabeled Compound 16 was defined as the non-specific binding amount and the radioactivity without addition of the unlabeled Compound 16 was defined as the total binding amount, and then the individual specific binding amounts were calculated by the method described in Example 6. Using the following formula, the binding inhibition ratio was determined. [formula]

[2] = system: MIN6 cell; test: Insulin secretion test using MIN6 cell; assay type: cell-based, murine; conditions: for Insulin secretory activity (%): MIN6 cell, glucose 14.5 mmol/l or 8.4 mmol/l; for Insulin secretion-promoting activity (%): 10 μmol/l
Description: Culturing MIN6 cell and testing insulin secretion using MIN6 cell were carried out according to the method described in Diabetorogia, 36, 1139-1145 (1993).
In other words, the influence of a compound on the insulin secretion activity in the presence of 14.5 mmol/l glucose was assessed by assaying the amount of insulin in the cell culture supernatant collected as follows.
The MIN6 cell cultured in a 24-well plate was washed twice with 1 ml of buffer A [119 mmol/l NaCl, 4.74 mmol/l KCl, 2.54 mmol/l CaCl2, 1.19 mmol/l MgSO4, 1.19 mmol/l KH2PO4, 10 mmol/l 2-[4-(2-hydroxylethyl)-1-piperadinyl]ethanesulfonic acid, 0.1% BSA, pH 7.3] containing 2 mmol/l glucose. Subsequently, the resulting cell was incubated in 1 ml of the buffer A containing 2 mmol/l glucose at 37° C. for 45 minutes. The culture supernatant was exchanged with the buffer A (1 ml) containing test compounds of various concentrations and 8.4 mmol/l glucose and incubated at 37° C. for 45 minutes to collect the culture supernatant.
Antibody-reactive insulin secreted in the culture supernatant was assayed by radioimmunoassay [Methods in Investigative and Diagnostic Endocrinology, Vol. 2A, 2B, North-Holland Publishing Co., Amsterdam (1973)] after the culture supernatant was diluted with phosphate buffer containing 1% BSA, 0.1% Tween 20, 0.12% EDTA 2Na, and 0.1% sodium azide. A standard curve was prepared by using human insulin as the standard substance, and individual insulin values were calculated on the basis of the curve.

[3] = promoted insulin secretion level of Compound 16 = 100%

SMILES	Binding inhibitory activity (%) [1]	Insulin secretory activity (%) [2]	other results
CCCN1C(=O)N2CC(CCc3ccccc3)N=C2c2[nH]c(C3CCCC3)nc21 (centres unmarked) [compound 31]	112.4%	80.5%	
CCCN1C(=O)N2CC(Cc3ccccc3)N=C2c2[nH]c(C3CC3)nc21 (centres unmarked) [compound 36]	57.9%	47.0%	
CCCN1C(=O)N2CC(Cc3ccccc3)N=C2c2[nH]c(C3CCC3)nc21 (centres unmarked) [compound 37]	73.7%	61.0%	
CCCN1C(=O)N2CC(Cc3ccccc3)N=C2c2[nH]c(C3CCCCC3)nc21 (centres unmarked) [compound 38]	71.8%	83.0%	
CCCN1C(=O)N2CC(Cc3ccccc3)N=C2c2[nH]c(CC3CCCC3)nc21 (centres unmarked) [compound 40]	38.5%	76.3%	
CCCN1C(=O)N2CC(Cc3ccccc3)N=C2c2[nH]c(C(C)C)nc21 (centres unmarked) [compound 41]	55.0%	37.2%	
CCCN1C(=O)N2CC(Cc3ccccc3)N=C2c2[nH]c(C(C)(C)C)nc21 (centres unmarked) [compound 43]	77.6%	54.4%	
CCCN1C(=O)N2CC(Cc3cccc(C)c3)N=C2c2[nH]c(C3CCCC3)nc21 (centres unmarked) [compound 61]	50.8%	80.4%	
CCCN1C(=O)N2CC(Cc3ccc(O)cc3)N=C2c2[nH]c(C3CCCC3)nc21 (centres unmarked) [compound 76]	12.6%	16.9%	
CN1C(=O)N2CC(Cc3ccccc3)N=C2c2[nH]c(C3CCCC3)nc21 (centres unmarked) [compound 84]	66.4%	31.7%	
O=C1N2CC(Cc3ccccc3)N=C2c2[nH]c(C3CCCC3)nc2N1c1ccccc1 (centres unmarked) [compound 85]	72.0%	26.7%	
CCCN1C(=O)N2CC(Cn3cncn3)N=C2c2[nH]c(C3CCCC3)nc21 (centres unmarked) [compound 116]	7.9%	−1.7%	
CCCN1C(=O)N2CC(Cn3cccc3)N=C2c2[nH]c(C3CCCC3)nc21 (centres unmarked) [compound 117]	68.6%	43.5%	
CCCN1C(=O)N2CC(Cc3ccccc3)N=C2c2[nH]c(COCC)nc21 (centres unmarked) [compound 138]	60.7%	7.8%	
CCCN1C(=O)N2CC(Cc3ccccc3)N=C2c2[nH]c(C3CCCO3)nc21 (centres unmarked) [compound 144]	50.5%	28.5%	
CCCN1C(=O)N2CC(Cc3ccccc3)N=C2c2[nH]c(C3CCC(O)CC3)nc21 (centres unmarked) [compound 147]	56.8%	45.6%	
O=C1N2CC(Cc3ccccc3)N=C2c2[nH]c(C3CCCC3)nc2N1Cc1ccc(F)cc1 (centres unmarked) [compound 175]	49.5%	54.7%	
CCCN1C(=O)N2CC(Cc3ccccc3)N=C2c2[nH]c(C)nc21 (centres unmarked) [compound 183]	41.6%	22.5%	
CCCc1nc2c([nH]1)C1=NC(Cc3ccccc3)CN1C(=O)N2CCC (centres unmarked) [compound 184]	78.5%	75.0%	
CCCc1nc2c([nH]1)C1=NC(Cc3ccc(C#N)cc3)CN1C(=O)N2CCC (centres unmarked) [compound 185]	38.4%	30.7%	
CCCN1C(=O)N2CC(Cc3ccc(F)cc3)N=C2c2[nH]c(C3CCCC3)nc21 (centres unmarked) [compound 187]	73.5%	85.0%	
CCCN1C(=O)N2CC(Cc3ccc(C(=O)O)cc3)N=C2c2[nH]c(C3CCCC3)nc21 (centres unmarked) [compound 188]	−7.6%	−8.0%	
O=C1N2CC(Cc3ccccc3)N=C2c2[nH]c(C3CCCC3)nc2N1CCCO (centres unmarked) [compound 189]	56.4%	44.9%	
CNc1nc(NC(C)(C)C)nc(NC(C)(C)C)n1 [compound 193]			inhibition ratio (binding of [3H]-labeled Compound 16 to pancreatic β cells) ([1]; at 10 μmol/l): 84%; Binding inhibition (%) [1]: 84.0%; Insulin secretion-promoting activity (%) [2, 3]: 194.8%; promoted insulin secretion level [2, 3]: 195%
CC(C)(C)Nc1nc(NC(C)(C)C)nc(N2CCOCC2)n1 [compound 194]			Binding inhibition (%) [1]: 78.1%; Insulin secretion-promoting activity (%) [2, 3]: 122.7%
C1=CC2N=CN(c3nc(-n4cnc5ccccc54)nc(-n4cnc5ccccc54)n3)C2C=C1 (centres unmarked) [compound 197]			Binding inhibition (%) [1]: 15.0%; Insulin secretion-promoting activity (%) [2, 3]: 31.9%
CN(C)c1nc(NC(C)(C)C)nc(NC(C)(C)C)n1 [compound 198]			Binding inhibition (%) [1]: 99.0%; Insulin secretion-promoting activity (%) [2, 3]: 30.6%
